ChEMBL document CHEMBL1138375, “SAR studies of 6-(arylamino)-4,4-disubstituted-1-methyl-1,4-dihydro-benzo[d][1,3]oxazin-2-ones as progesterone receptor antagonists” (Bioorg Med Chem Lett, 2007)

The compounds below were run against T1, Progesterone receptor (Homo sapiens, UniProt P06401) (assay: Antagonist activity at progesterone receptor expressed in T47D cells assessed as inhibition of progesterone-induced alkaline phosphatase activity).
T1 sequence (P06401 whole entry): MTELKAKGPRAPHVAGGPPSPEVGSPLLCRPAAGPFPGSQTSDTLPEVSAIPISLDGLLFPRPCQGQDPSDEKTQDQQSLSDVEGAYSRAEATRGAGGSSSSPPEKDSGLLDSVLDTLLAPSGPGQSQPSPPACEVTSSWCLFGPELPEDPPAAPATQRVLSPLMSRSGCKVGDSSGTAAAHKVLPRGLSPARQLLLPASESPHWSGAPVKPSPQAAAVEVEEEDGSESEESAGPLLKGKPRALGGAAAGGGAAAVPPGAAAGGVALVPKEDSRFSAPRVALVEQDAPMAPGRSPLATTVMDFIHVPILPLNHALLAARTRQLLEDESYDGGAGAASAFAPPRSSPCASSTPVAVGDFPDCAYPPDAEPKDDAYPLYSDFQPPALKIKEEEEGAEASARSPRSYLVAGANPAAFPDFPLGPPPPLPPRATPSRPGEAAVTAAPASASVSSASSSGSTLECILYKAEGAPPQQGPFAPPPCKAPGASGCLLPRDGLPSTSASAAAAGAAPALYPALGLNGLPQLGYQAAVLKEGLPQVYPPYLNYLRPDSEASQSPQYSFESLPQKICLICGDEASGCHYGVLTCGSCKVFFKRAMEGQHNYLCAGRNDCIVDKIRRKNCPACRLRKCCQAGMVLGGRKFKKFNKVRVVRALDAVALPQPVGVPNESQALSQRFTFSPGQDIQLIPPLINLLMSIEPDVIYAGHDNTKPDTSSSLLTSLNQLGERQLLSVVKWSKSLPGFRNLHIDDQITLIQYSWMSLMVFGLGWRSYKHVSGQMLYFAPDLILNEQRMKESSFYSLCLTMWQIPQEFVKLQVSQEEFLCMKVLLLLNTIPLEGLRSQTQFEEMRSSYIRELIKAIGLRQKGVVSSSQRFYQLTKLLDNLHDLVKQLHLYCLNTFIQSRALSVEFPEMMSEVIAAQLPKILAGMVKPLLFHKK
Assay type: functional, cell-based
`CCC1(CC)OC(=O)N(C)c2ccc(Nc3ccc(F)c(C#N)c3)cc21` showed an IC50 of 9.2 nM. `CCC1(c2ccccc2)OC(=O)N(C)c2ccc(Nc3cccc(Cl)c3)cc21` (centres undefined) was tested, and the IC50 was 66.1 nM. `CCC1(c2ccc(Cl)cc2)OC(=O)N(C)c2ccc(Nc3cccc(Cl)c3)cc21` (centres undefined) showed an IC50 of 71.8 nM. In the case of `CN1C(=O)OC(C)(C)c2cc(Nc3cccc(Cl)c3Cl)ccc21`, the IC50 is reported as 56 nM. Work on `CN1C(=O)OC(C)(C)c2cc(Nc3ccc(Br)cc3)ccc21` yielded an IC50 of 54.4 nM. `CCN1C(=O)OC(C)(C)c2cc(Nc3ccc(Br)cc3)ccc21` showed an IC50 of 1000 nM. `CCC1(CC)OC(=O)N(C)c2ccc(Nc3cc(Cl)cc(Cl)c3)cc21` was tested, and the IC50 was 8.1 nM. For `CCC1(CC)OC(=O)N(C)c2ccc(Nc3cc(F)cc(C#N)c3)cc21`, the IC50 was 14.5 nM. `CC1(C)OC(=O)N(c2ccccc2)c2ccc(Nc3ccc(Br)cc3)cc21` showed an IC50 of 3000 nM. Work on `CC1(C)OC(=O)N(Cc2ccccc2)c2ccc(Nc3ccc(Br)cc3)cc21` yielded an IC50 of 3000 nM. `CCC1(CC)OC(=O)N(C)c2ccc(Nc3ccc(F)c(F)c3)cc21` was tested, and the IC50 was 27.4 nM. For `CCC1(CC)OC(=S)N(C)c2ccc(Nc3ccc(F)c(F)c3)cc21`, the IC50 was 42.2 nM. For `CCC1(CC)OC(=O)N(C)c2ccc(Nc3cccc(Cl)c3Cl)cc21`, the IC50 was 5 nM. `CCC1(CC)OC(=O)N(C)c2ccc(Nc3cccc(Cl)c3)cc21` was tested, and the IC50 was 13.1 nM. Compound `CN1C(=S)OC(C)(C)c2cc(Nc3ccc(Br)cc3)ccc21` has an IC50 of 30 nM. `CN1C(=O)OC(c2ccc(Cl)cc2)(c2ccc(Cl)cc2)c2cc(Nc3cccc(Cl)c3)ccc21` showed an IC50 of 1000 nM. Work on `CN1C(=O)OC(C)(C)c2cc(Nc3ccc(Cl)c(Cl)c3)ccc21` yielded an IC50 of 100 nM. `CC1(C)OC(=O)Nc2ccc(Nc3cccc(Cl)c3Cl)cc21` gave an IC50 of 206 nM. With `CC(C)N1C(=O)OC(C)(C)c2cc(Nc3ccc(Br)cc3)ccc21` the IC50 was 1000 nM. With `CCC1(CC)OC(=O)N(C)c2ccc(Nc3ccc(Cl)c(Cl)c3)cc21` the IC50 was 29.8 nM. In the case of `CCC1(CC)OC(=O)N(C)c2ccc(Nc3ccc(C#N)c(F)c3)cc21`, the IC50 is reported as 37.1 nM. In the case of `CCC1(CC)OC(=O)N(C)c2ccc(Nc3cc(F)cc([N+](=O)[O-])c3)cc21`, the IC50 is reported as 8.4 nM. In the case of `CCC1(c2cccs2)OC(=O)N(C)c2ccc(Nc3cccc(Cl)c3)cc21` (centres undefined), the IC50 is reported as 32.2 nM. `CCC1(CC)OC(=O)N(C)c2ccc(Nc3ccc(F)c(Cl)c3)cc21` gave an IC50 of 9 nM.
